The values that follow come from the supplement of paper PMC10307832.

What all share (experiment): relative viability (nuclei count vs DMSO), 5 days (fraction); higher = more cells survive
Compound in test [1]: CCOC1=CC=CC=C1N=NC2=C(NN(C2=O)C3=NC(=CS3)C4=CC=CC=C4)C [BAM7] + CC(=O)c1c(C)c2cnc(Nc3ccc(N4CCNCC4)cn3)nc2n(C2CCCC2)c1=O [Palbociclib] (partner 0.5 µM)
A digest of the protocol: (§1)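 Each reported value is a median over duplicate plates. It expresses relative viability: treated-well nuclei count divided by vehicle-well nuclei count. Lung cancer cell lines in 1536-well plates were dosed by pin tool a day after seeding, alone with one drug or with a fixed anchor-drug dose plus five library-drug doses (not always all listed) in √10 steps, and nuclei were counted after 5 days.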

Compound in test [2]: CCOC1=CC=CC=C1N=NC2=C(NN(C2=O)C3=NC(=CS3)C4=CC=CC=C4)C [BAM7] + Cc1cc(Nc2cc(N3CCN(C)CC3)nc(Sc3ccc(NC(=O)C4CC4)cc3)n2)n[nH]1 [Tozasertib] (partner 0.1 µM)
The essentials:
as §1

Compound in test [3]: CCOC1=CC=CC=C1N=NC2=C(NN(C2=O)C3=NC(=CS3)C4=CC=CC=C4)C [BAM7]
A digest of the protocol:
(§2)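 Viability is treated-well nuclei as a fraction of vehicle-well nuclei, reported as the median across plates. Before counting, lung cancer cell lines were kept overnight at 37 °C in 1536-well plates, pinned with five √10-spaced library-drug doses on vehicle-anchored plates, and left 5 days without medium change, then fixed, permeabilised and Hoechst-stained in one step, imaged at 4× and counted by MetaXpress. A plate passed only if control CV was below 25% and at least one doubling occurred.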

Compound in test [4]: CCn1c(-c2nonc2N)nc2c(C#CC(C)(C)O)ncc(OC[C@H]3CCCNC3)c21
A digest of the protocol: as §2

As to UMC-11, the relative viability in test [1] (first compound 0.5 µM) came out at 0.32; in test [1] (first compound 5 µM), 0.341; in test [1] (first compound 15.81 µM), 0.342; in test [1] (first compound 50 µM), 0.336; in test [2] (first compound 0.5 µM), 0.2; in test [2] (first compound 5 µM), 0.202. In addition, the relative viability in test [2] (first compound 15.81 µM) came to 0.196; in test [2] (first compound 50 µM) it was 0.198; in test [3] (0.5 µM), 1.01; in test [3] (5 µM), 1.1; in test [3] (15.81 µM) it was 1.06; in test [3] (50 µM), 1.07. The relative viability in test [4] (0.01 µM) was found to be 0.955; in test [4] (0.03162 µM), 1.02; in test [4] (0.1 µM) it was 0.957; in test [4] (0.3162 µM) it was 0.982; in test [4] (1 µM), 0.943.
